Results: patent US20230330254A1 (Regeneron Pharmaceuticals, Inc., priority 2022, published 2023)
*1 amine or outer side, *2 acyl side, *3 side chain or, on linkers, in order; H or OH if unused. Where a SMILES comes first, the peptide text is derived from it. Side-chain parts run from the residue outwards. [ ]: non-standard residue; d: D form. The star is where a group is joined. PEG24 = NCCOCCOCCOCCOCCOCCOCCOCCOCCOCCOCCOCCOCCOCCOCCOCCOCCOCCOCCOCCOCCOCCOCCOCCOCCC(=O)O; Bip(2'-Et-4'-O(CH2)4NH2) = CCc1cc(OCCCCN[*:3])ccc1-c1ccc(C[C@H](N[*:1])C(=O)[*:2])cc1; Bip(2'-Et,4'-O(CH2)4N3) = CCc1cc(OCCCCN=[N+]=[N-])ccc1-c1ccc(C[C@H](N)C(=O)O)cc1; Malonyl(2,2-Me2,histaminyl) = CC(C)(C(=O)NCCc1cnc[nH]1)C(=O)*; Nva(5-(3,5-Me2Ph)) = Cc1cc(C)cc(CCC[C@H](N)C(=O)O)c1; Ala(1H-tetrazol-5-yl) = N[C@@H](Cc1nnn[nH]1)C(=O)O; αMePhe(2-F) = C[C@](N)(Cc1ccccc1F)C(=O)O; DBCO = C1#Cc2ccccc2N(*)Cc2ccccc21; Suc = O=C(CCC(=O)[*:2])[*:1]

How the values were obtained:
HEK293/CRE-Luc cells [1] = experiment: Luciferase reporter assay, HEK293/CRE-Luc cells without hGLP1R (Example 11); assay type: cell-based, human; conditions: Experiment A
Summary of the method: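 Counter-screen in HEK293 cells carrying CRE-driven firefly luciferase without hGLP1R; 3-fold serial dilutions of payloads or linker-payloads at 0.2% final DMSO, 4–6 h.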

HEK293/CRE-Luc cells [2] = experiment: Luciferase reporter assay, HEK293/CRE-Luc cells without GLP1R (Example 17); assay type: cell-based, human; conditions: HEK293/CRE-Luc cells without hGLP1R, payloads and linker-payloads; for EC50: read-out: EC50
Summary of the method: (§1)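 HEK293 cells carrying a CRE-driven firefly luciferase reporter were exposed to 3-fold serial dilutions of payloads or linker-payloads (12 points, 0.2% DMSO final) for 4–6 h, then luminescence was read. EC50 came from a four-parameter logistic fit; S/N is top RLU over untreated wells, and relative potency and S/N are referenced to M2361.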

human GLP1R [3] = biological target: T1, human GLP1R (Homo sapiens, UniProt P43220); experiment: CRE-luciferase reporter assay, HEK293/Myc-hGLP1R/Cre-Luc (Example 9); assay type: cell-based; set-up: engineered to express full-length human GLP1R, cynomolgus GLP1R; expressed in transfected cells; host or cells: HEK293/CRE-Luc; conditions: Table 9; 5.5 h; read-out: HEK293/Myc-hGLP1R/Cre-Luc EC50
T1 sequence (P43220 24-463): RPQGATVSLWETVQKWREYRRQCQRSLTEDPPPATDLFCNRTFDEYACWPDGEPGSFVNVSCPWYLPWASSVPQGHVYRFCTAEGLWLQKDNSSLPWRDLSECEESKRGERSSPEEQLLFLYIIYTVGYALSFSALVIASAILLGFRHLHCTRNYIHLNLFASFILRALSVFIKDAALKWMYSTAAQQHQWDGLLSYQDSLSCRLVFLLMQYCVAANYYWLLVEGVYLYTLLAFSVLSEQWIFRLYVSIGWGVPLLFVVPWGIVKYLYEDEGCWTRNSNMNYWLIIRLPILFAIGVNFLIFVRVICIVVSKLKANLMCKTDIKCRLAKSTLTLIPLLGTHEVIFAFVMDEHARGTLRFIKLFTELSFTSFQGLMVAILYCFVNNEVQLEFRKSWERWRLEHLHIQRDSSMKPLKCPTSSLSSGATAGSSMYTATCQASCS
Method: To test the activity of GLP1R agonist payloads and GLP1R agonist linker-payloads (LPs) in vitro, a cell-based cAMP responsive luciferase reporter assay was developed.
Cells were incubated overnight at 37° C. in 5% CO2. […] Plates were incubated for 5.5 h at 37° C. in 5% CO2. For end-point measurement, 100 μL/well of One-Glo reagent (Promega, #E6051) was added and plates were kept at room temperature for 5-10 minutes. Luciferase activity was measured on Envision Multilabel Plate Reader (Perkin Elmer) in Luminescent mode. The relative light units (RLU) values were obtained and the results were analyzed using nonlinear regression with GraphPad Prism software (GraphPad).

human GLP1R [4] = biological target: T1, human GLP1R; experiment: Luciferase reporter assay, HEK293/CRE-Luc/hGLP1R (Example 17); assay type: cell-based; set-up: engineered to express full-length human GLP1R, cynomolgus GLP1R; expressed in transfected cells; host or cells: HEK293/CRE-Luc; conditions: HEK293/CRE-Luc/hGLP1R; for S/N: highest RLU / RLU of untreated wells; for Relative Potency (% M2361 EC50) / Relative Signal:Noise (% M2361): relative to M2361 of the same experiment
Summary of the method: as §1

human GLP1R [5] = biological target: T1, human GLP1R; experiment: Luciferase reporter assay, HEK293/CRE-Luc/hGLP1R cells (Example 11); assay type: cell-based; set-up: engineered to express full-length human GLP1R, cynomolgus GLP1R; expressed in transfected cells; host or cells: HEK293/CRE-Luc
human GLP1R [6] = biological target: T1, human GLP1R; experiment: Human GLP1R cAMP accumulation assay; assay type: cell-based; set-up: HEK293 cells over-expressing full length human GLP-1R were utilized; expressed in transfected cells; host or cells: HEK293 (HEK293/hGLP1R); conditions: HEK293/hGLP1R cells; Table 4; read-out: cAMP EC50
Summary of the method: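 cAMP accumulation measured after 30 min at 23° C, with 500 μM IBMX in HEPES-buffered HBSS plus 0.1% BSA, in HEK293 cells expressing full-length hGLP-1R. Levels read by D2-cAMP/antibody immunoassay via standard curve, scaled between low and high controls. EC50 fitted four-parameter over a 10-point curve.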

hERG potassium channels = hERG potassium channels (Homo sapiens, UniProt Q12809); experiment: cell-based
Sequence of hERG potassium channels (Q12809 whole entry): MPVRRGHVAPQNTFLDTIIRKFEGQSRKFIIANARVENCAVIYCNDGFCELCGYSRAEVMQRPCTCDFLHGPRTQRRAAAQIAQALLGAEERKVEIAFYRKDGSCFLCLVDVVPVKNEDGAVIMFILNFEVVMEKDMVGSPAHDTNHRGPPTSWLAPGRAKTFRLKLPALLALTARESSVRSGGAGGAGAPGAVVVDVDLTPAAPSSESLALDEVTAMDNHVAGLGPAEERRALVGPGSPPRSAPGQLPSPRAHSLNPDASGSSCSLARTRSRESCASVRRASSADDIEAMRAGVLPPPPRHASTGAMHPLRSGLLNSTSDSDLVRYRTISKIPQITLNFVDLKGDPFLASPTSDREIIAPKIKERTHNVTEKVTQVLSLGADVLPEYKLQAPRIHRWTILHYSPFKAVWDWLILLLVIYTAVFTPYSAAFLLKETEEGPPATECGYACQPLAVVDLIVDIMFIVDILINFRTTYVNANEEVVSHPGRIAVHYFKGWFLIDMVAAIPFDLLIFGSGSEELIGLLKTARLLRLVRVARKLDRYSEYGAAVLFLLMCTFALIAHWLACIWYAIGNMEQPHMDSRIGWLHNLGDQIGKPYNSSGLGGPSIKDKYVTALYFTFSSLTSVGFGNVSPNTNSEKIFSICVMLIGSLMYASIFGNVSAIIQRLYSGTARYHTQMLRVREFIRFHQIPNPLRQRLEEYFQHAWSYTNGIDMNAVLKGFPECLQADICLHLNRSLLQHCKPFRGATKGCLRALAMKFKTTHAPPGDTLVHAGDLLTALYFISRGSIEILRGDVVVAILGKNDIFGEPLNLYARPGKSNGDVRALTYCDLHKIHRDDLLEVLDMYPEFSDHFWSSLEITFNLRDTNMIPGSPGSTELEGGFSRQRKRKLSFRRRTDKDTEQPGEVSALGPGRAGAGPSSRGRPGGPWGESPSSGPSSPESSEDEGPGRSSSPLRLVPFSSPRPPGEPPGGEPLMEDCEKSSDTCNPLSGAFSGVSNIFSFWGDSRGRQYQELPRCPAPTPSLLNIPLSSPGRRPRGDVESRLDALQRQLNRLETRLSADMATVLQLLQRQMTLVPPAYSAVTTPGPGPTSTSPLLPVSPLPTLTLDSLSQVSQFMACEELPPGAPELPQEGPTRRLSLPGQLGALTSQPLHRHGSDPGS
Method: For the assay, CHO cells stably expressing hERG potassium channels were plated and cultured for at least 2 days in a humidified and air-controlled (5% CO2) incubator at 37° C. prior to use in electrophysiological experiments. Cells were then harvested using TrypLE and resuspended in physiological solution (10 mM HEPES, 80 mM NaCl, 4 mM KCl, 2 mM CaCl2, 1 mM MgCl2, 5 mM Glucose, 60 mM NM DG, pH 7.4). Test compounds were dissolved in water to obtain stock solutions for different test concentrations. […] One 40 μL addition of the vehicle was applied, followed by a 300s baseline recording period. […] Recordings were required to pass quality control over the duration of the recording or the well was abandoned, and the compound was retested, all automatically set by PatchControl. […] A minimum of 2 replicates per concentration were obtained. […] Curve-fitting and IC50 value calculations were performed by GraphPad Prism 5.0.

[7] = Plasma stability of payloads and linker-payloads, human plasma; assay type: in vitro ADME; conditions: plasma, pH 7.4, tested time A (1 day per footnote), 2 μM, 37° C., read-out: Human plasma stability assay T½ (converted)
Summary of the method: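 Pooled plasma, pH adjusted to 7.4±0.1 where needed, spiked to 2 μM compound (duplicate) and incubated at 37 °C. At each time point, protein was precipitated with ACN/MeOH stop solution containing internal standards; remaining compound quantified in supernatant by LC-MS/MS.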

In the case of `CCc1cc(OCCCCNC(=O)CCOCCOCCOCCOCCOCCOCCOCCOCCOCCOCCOCCOCCOCCOCCOCCOCCOCCOCCOCCOCCOCCOCCOCCOCCNC(=O)CCC(=O)N2Cc3ccccc3C#Cc3ccccc32)ccc1-c1ccc(C[C@H](NC(=O)[C@H](CC(=O)O)NC(=O)[C@H](CO)NC(=O)[C@@H](NC(=O)[C@](C)(Cc2ccccc2F)NC(=O)[C@@H](NC(=O)CNC(=O)[C@H](Cc2nn[nH]n2)NC(=O)C(C)(C)C(=O)NCCc2cnc[nH]2)[C@@H](C)O)[C@@H](C)O)C(=O)N[C@@H](CCCc2cc(C)cc(C)c2)C(N)=O)cc1` [LP4, DIBAC-suc-PEG24-P9] ({Malonyl(2,2-Me2,histaminyl)}-[Ala(1H-tetrazol-5-yl)]GT[αMePhe(2-F)]TSD[Bip(2'-Et-4'-O(CH2)4NH2)]([PEG24-Suc-DBCO])[Nva(5-(3,5-Me2Ph))]-NH2), the EC50 (HEK293/CRE-Luc cells [1]; Table 11, no hGLP1R expression) is reported as over 200 nM, the “HEK293/CRE-LUC S/N” value (HEK293/CRE-Luc cells [1]; Table 11, no hGLP1R expression) is reported as 1.7 and the S/N (HEK293/CRE-Luc cells [2]) is reported as 1.7. For the same molecule, the EC50 (HEK293/CRE-Luc cells [2]) was over 200 nM, the EC50 (human GLP1R [3]) was 0.0715 nM and the S/N (human GLP1R [4]) was 63.8. The “Relative Potency (% M2361 EC50)” value (human GLP1R [4]) was 4.2%, the “Relative Signal:Noise (% M2361)” value (human GLP1R [4]) was 97.1% and the EC50 (human GLP1R [5]; Table 11, Experiment A) was 0.127 nM. For the same molecule, the “HEK293/CRE-LUC/hGLP1R Relative Potency (% P8 EC50)” value (human GLP1R [5]; Table 11, Experiment A) was 4.2% and the “HEK293/CRE-LUC/hGLP1R S/N” value (human GLP1R [5]; Table 11, Experiment A) was 63.8.

Molecule `CCc1cc(OCCCCn2cc(COCCOCCOCCOCCNC(=O)COC3C#CCCCCC3)nn2)ccc1-c1ccc(C[C@H](NC(=O)[C@H](CC(=O)O)NC(=O)[C@H](CO)NC(=O)[C@@H](NC(=O)[C@](C)(Cc2ccccc2F)NC(=O)[C@@H](NC(=O)CNC(=O)[C@H](Cc2nn[nH]n2)NC(=O)C(C)(C)C(=O)NCCc2cnc[nH]2)[C@@H](C)O)[C@@H](C)O)C(=O)N[C@@H](CCCc2cc(C)cc(C)c2)C(N)=O)cc1` (some centres unmarked) [LP10, COT-PEG4-triazole-P8] has an EC50 (human GLP1R [6]) of 0.982 nM, a S/N (HEK293/CRE-Luc cells [2]) of 1.1 and an EC50 (HEK293/CRE-Luc cells [2]) of over 200 nM. The IC50 (hERG potassium channels) was over 100000 nM, the S/N (human GLP1R [4]) was 51.7 and the EC50 (human GLP1R [4]; payloads and linker-payloads, experiments A-E, M2361 repeated in each, read-out: EC50) was 0.0391 nM. For the same molecule, the “Relative Potency (% M2361 EC50)” value (human GLP1R [4]) was 13.6% and the “Relative Signal:Noise (% M2361)” value (human GLP1R [4]) was 78.7%.

With `CCc1cc(OCCCCN=[N+]=[N-])ccc1-c1ccc(C[C@H](NC(=O)[C@H](CC(=O)O)NC(=O)[C@H](CO)NC(=O)[C@@H](NC(=O)[C@](C)(Cc2ccccc2F)NC(=O)[C@@H](NC(=O)CNC(=O)[C@H](Cc2nn[nH]n2)NC(=O)C(C)(C)C(=O)NCCc2cnc[nH]2)[C@@H](C)O)[C@@H](C)O)C(=O)N[C@@H](CCCc2cc(C)cc(C)c2)C(N)=O)cc1` [P8] ({Malonyl(2,2-Me2,histaminyl)}-[Ala(1H-tetrazol-5-yl)]GT[αMePhe(2-F)]TSD[Bip(2'-Et,4'-O(CH2)4N3)][Nva(5-(3,5-Me2Ph))]-NH2) the EC50 (human GLP1R [6]) was 0.497 nM, the EC50 (HEK293/CRE-Luc cells [1]; Table 11, no hGLP1R expression) was over 200 nM and the “HEK293/CRE-LUC S/N” value (HEK293/CRE-Luc cells [1]; Table 11, no hGLP1R expression) was 1.5. For the same molecule, the EC50 (HEK293/CRE-Luc cells [1]; Table 12) was over 20 nM, the “HEK293/CRE-Luc S/N” value (HEK293/CRE-Luc cells [1]; Table 12) was 1.3 and the EC50 (human GLP1R [3]) was 0.0076 nM. For the same molecule, the EC50 (human GLP1R [5]; Table 11, Experiment A) was 0.00531 nM, the “HEK293/CRE-LUC/hGLP1R Relative Potency (% P8 EC50)” value (human GLP1R [5]; Table 11, Experiment A) was 100.0% and the “HEK293/CRE-LUC/hGLP1R S/N” value (human GLP1R [5]; Table 11, Experiment A) was 65.8. For the same molecule, the EC50 (human GLP1R [5]; Table 11, Experiment B) was 0.02 nM, the “HEK293/CRE-LUC/hGLP1R Relative Potency (% P8 EC50)” value (human GLP1R [5]; Table 11, Experiment B) was 100.0% and the “HEK293/CRE-LUC/hGLP1R S/N” value (human GLP1R [5]; Table 11, Experiment B) was 327.9. The EC50 (human GLP1R [5]; Table 11, Experiment D) was 0.0273 nM, the “HEK293/CRE-LUC/hGLP1R Relative Potency (% P8 EC50)” value (human GLP1R [5]; Table 11, Experiment D) was 100.0% and the “HEK293/CRE-LUC/hGLP1R Relative Signal:Noise (% P8)” value (human GLP1R [5]; Table 11, Experiment D) was 100.0%. The “HEK293/CRE-LUC/hGLP1R S/N” value (human GLP1R [5]; Table 11, Experiment D) was 235.9, the EC50 (human GLP1R [5]; Table 12, Experiment A) was 0.0162 nM and the “HEK293/CRE-Luc/hGLP1R Relative Potency (% P8 EC50)” value (human GLP1R [5]; Table 12, Experiment A) was 100.0%. For the same molecule, the “HEK293/CRE-Luc/hGLP1R Relative Signal:Noise (% P8)” value (human GLP1R [5]; Table 12, Experiment A) was 100.0%, the “HEK293/CRE-Luc/hGLP1R S/N” value (human GLP1R [5]; Table 12, Experiment A) was 64.3 and the EC50 (human GLP1R [5]; Table 12, Experiment D) was 0.0273 nM. The “HEK293/CRE-Luc/hGLP1R Relative Potency (% P8 EC50)” value (human GLP1R [5]; Table 12, Experiment D) was 100.0%, the “HEK293/CRE-Luc/hGLP1R Relative Signal:Noise (% P8)” value (human GLP1R [5]; Table 12, Experiment D) was 100.0% and the “HEK293/CRE-Luc/hGLP1R S/N” value (human GLP1R [5]; Table 12, Experiment D) was 235.9. It also gave a half-life at 2 µM [7] of over 57.8 h.
